Test results taken from US20110086759A1, “CHEMICAL COMPOUNDS” (SYNGENTA CROP PROTECTION, INC., priority 2007, published 2011).

What was measured:
[1] = test system: Ipomea hederaceae (IPOHE); test: Post-emergence biological efficacy, glasshouse pot test; type: in vivo; conditions: Ipomoea hederacea, 312 h
Outline: (§1)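 Plants were sown in standard soil and grown 8 days in a glasshouse (24/16° C. day/night, 14 hours light, 65% humidity), then sprayed post-emergence at 1000 or 250 g/ha from acetone/water (50:50) with 0.5% Tween 20. Damage was scored visually after 13 days (0 = none, 100 = total).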

[2] = test system: Solanum nigrum (SOLNI); test: as above; type: in vivo; conditions: 312 h
Outline: as §1

[3] = test system: Alopecurus myosuroides (ALOMY); test: as above; type: in vivo; conditions: 312 h
Outline: as §1

[4] = test system: Amaranthus retoflexus (AMARE); test: as above; type: in vivo; conditions: Amaranthus retroflexus, 312 h
Outline: as §1

[5] = test system: Echinochloa crus-galli (ECHCG); test: as above; type: in vivo; conditions: 312 h
Outline: as §1

[6] = test system: Setaria faberi (SETFA); test: as above; type: in vivo; conditions: 312 h
Outline: as §1

[7] = test system: Ipomea hederaceae (IPOHE); test: Pre-emergence biological efficacy, glasshouse pot test; type: in vivo; conditions: Ipomoea hederacea, 312 h
Outline: (§2)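 Seeds sown in standard soil in pots, held one day in glasshouse (24/16 °C day/night, 14 h light, 65% humidity), then sprayed with aqueous solution from acetone/water (50:50) formulation with 0.5% Tween 20 at 1000 or 250 g/ha. Damage scored after 13 days (0 = none, 100 = total).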

[8] = test system: Solanum nigrum (SOLNI); test: as above; type: in vivo; conditions: 312 h
Outline: as §2

[9] = test system: Alopecurus myosuroides (ALOMY); test: as above; type: in vivo; conditions: 312 h
Outline: as §2

[10] = test system: Amaranthus retoflexus (AMARE); test: as above; type: in vivo; conditions: Amaranthus retroflexus, 312 h
Outline: as §2

[11] = test system: Echinochloa crus-galli (ECHCG); test: as above; type: in vivo; conditions: 312 h
Outline: as §2

[12] = test system: Setaria faberi (SETFA); test: as above; type: in vivo; conditions: 312 h
Outline: as §2

[13] = Rate 1,000 g/ha, post-emergence spray, evaluated after 13 days (100=total damage to plant; 0=no damage to plant), read-out: Percentage damage caused to weed species, post-emergence, IPOHE
[14] = Rate 1,000 g/ha, post-emergence spray, evaluated after 13 days (100=total damage to plant; 0=no damage to plant), read-out: Percentage damage caused to weed species, post-emergence, SOLNI
[15] = Rate 1,000 g/ha, post-emergence spray, evaluated after 13 days (100=total damage to plant; 0=no damage to plant), read-out: Percentage damage caused to weed species, post-emergence, ALOMY
[16] = Rate 1,000 g/ha, post-emergence spray, evaluated after 13 days (100=total damage to plant; 0=no damage to plant), read-out: Percentage damage caused to weed species, post-emergence, AMARE
[17] = Rate 1,000 g/ha, post-emergence spray, evaluated after 13 days (100=total damage to plant; 0=no damage to plant), read-out: Percentage damage caused to weed species, post-emergence, ECHCG
[18] = Rate 1,000 g/ha, post-emergence spray, evaluated after 13 days (100=total damage to plant; 0=no damage to plant), read-out: Percentage damage caused to weed species, post-emergence, SETFA
[19] = pre-emergence, rate 1,000 g/ha, evaluated after 13 days (100=total damage to plant; 0=no damage), read-out: Percentage damage caused to weed species, IPOHE
[20] = pre-emergence, rate 1,000 g/ha, evaluated after 13 days (100=total damage to plant; 0=no damage), read-out: Percentage damage caused to weed species, SOLNI
[21] = pre-emergence, rate 1,000 g/ha, evaluated after 13 days (100=total damage to plant; 0=no damage), read-out: Percentage damage caused to weed species, ALOMY
[22] = pre-emergence, rate 1,000 g/ha, evaluated after 13 days (100=total damage to plant; 0=no damage), read-out: Percentage damage caused to weed species, AMARE
[23] = pre-emergence, rate 1,000 g/ha, evaluated after 13 days (100=total damage to plant; 0=no damage), read-out: Percentage damage caused to weed species, ECHCG
[24] = pre-emergence, rate 1,000 g/ha, evaluated after 13 days (100=total damage to plant; 0=no damage), read-out: Percentage damage caused to weed species, SETFA

SMILES | melting point [°C] | pest or weed control at 1000 g/ha [1, 13] [%] | pest or weed control at 1000 g/ha [2, 14] [%] | pest or weed control at 1000 g/ha [3, 15] [%] | pest or weed control at 1000 g/ha [4, 16] [%] | pest or weed control at 1000 g/ha [5, 17] [%] | pest or weed control at 1000 g/ha [6, 18] [%] | pest or weed control at 1000 g/ha [7, 19] [%] | pest or weed control at 1000 g/ha [8, 20] [%] | pest or weed control at 1000 g/ha [9, 21] [%] | pest or weed control at 1000 g/ha [10, 22] [%] | pest or weed control at 1000 g/ha [11, 23] [%] | pest or weed control at 1000 g/ha [12, 24] [%] | also measured
O=C(O)c1nc(C2CC2)nc(NCc2ccco2)c1Cl [Compound 1-125, 5-chloro-2-cyclopropyl-4-(furan-2-ylmethylamino)-pyrimidine-6-carboxylic acid] | 150 to 152 |  |  |  |  |  |  |  |  |  |  |  |  | pest or weed control at 1000 g/ha ([1]; post-emergence, 1,000 g/ha, evaluated after 13 days (100=total damage; 0=no damage), read-out: Percentage damage caused to weed species, IPOHE): 100%; pest or weed control at 1000 g/ha ([2]; post-emergence, 1,000 g/ha, evaluated after 13 days (100=total damage; 0=no damage), read-out: Percentage damage caused to weed species, SOLNI): 100%; pest or weed control at 1000 g/ha ([3]; post-emergence, 1,000 g/ha, evaluated after 13 days (100=total damage; 0=no damage), read-out: Percentage damage caused to weed species, ALOMY): 60%; pest or weed control at 1000 g/ha ([4]; post-emergence, 1,000 g/ha, evaluated after 13 days (100=total damage; 0=no damage), read-out: Percentage damage caused to weed species, AMARE): 100%; pest or weed control at 1000 g/ha ([5]; post-emergence, 1,000 g/ha, evaluated after 13 days (100=total damage; 0=no damage), read-out: Percentage damage caused to weed species, ECHCG): 70%; pest or weed control at 1000 g/ha ([6]; post-emergence, 1,000 g/ha, evaluated after 13 days (100=total damage; 0=no damage), read-out: Percentage damage caused to weed species, SETFA): 90%; pest or weed control at 1000 g/ha ([7]; pre-emergence, 1,000 g/ha, evaluated after 13 days (100=total damage; 0=no damage), read-out: Percentage damage IPOHE): 100%; pest or weed control at 1000 g/ha ([8]; pre-emergence, 1,000 g/ha, evaluated after 13 days (100=total damage; 0=no damage), read-out: Percentage damage SOLNI): 100%; pest or weed control at 1000 g/ha ([9]; pre-emergence, 1,000 g/ha, evaluated after 13 days (100=total damage; 0=no damage), read-out: Percentage damage ALOMY): 60%; pest or weed control at 1000 g/ha ([10]; pre-emergence, 1,000 g/ha, evaluated after 13 days (100=total damage; 0=no damage), read-out: Percentage damage AMARE): 100%; pest or weed control at 1000 g/ha ([11]; pre-emergence, 1,000 g/ha, evaluated after 13 days (100=total damage; 0=no damage), read-out: Percentage damage ECHCG): 80%; pest or weed control at 1000 g/ha ([12]; pre-emergence, 1,000 g/ha, evaluated after 13 days (100=total damage; 0=no damage), read-out: Percentage damage SETFA): 70%
C=Cc1c(NCc2ccco2)nc(C2CC2)nc1C(=O)OC [Compound 31-125, 2-cyclopropyl-5-ethenyl-4-(furan-2-ylmethylamino)-6-methoxycarbonylpyrimidine] | 85 to 86 | 50 | 80 | 10 | 90 | 0 | 10 | 100 | 80 | 20 | 90 | 20 | 20 | 
COC(=O)c1nc(-c2ccc(Cl)cc2)nc(NCc2ccco2)c1Cl [Compound 40-125, 5-chloro-2-(4-chlorophenyl)-4-(furan-2-ylmethylamino)-6-methoxycarbonylpyrimidine] | 132 to 134 | 90 | 90 | 50 | 100 | 70 | 90 | 20 | 80 | 40 | 100 | 50 | 40 | 
NC(=O)c1nc(C2CC2)nc(NCc2ccco2)c1Cl [Compound 201-125, 6-aminocarbonyl-5-chloro-2-cyclopropyl-4-(furan-2-ylmethylamino)-pyrimidine] | 126 to 128 | 70 | 90 | 20 | 90 | 20 | 50 | 40 | 70 | 20 | 70 | 0 | 0 | 
COC(=O)c1nc(Cl)nc(NCc2ccco2)c1Cl [Compound 207-48, 2,5-dichloro-4-(furan-2-ylmethylamino)-6-methoxy carbonylpyrimidine] | 110 to 112 | 30 | 60 | 10 | 30 | 10 | 10 | 40 | 40 | 20 | 30 | 10 | 20 | 
